From patent publication US8426437B2, “Pyrroloquinoline derivatives and their use as protein kinases inhibitors” (Pierre Fabre Medicament, priority 2005, dated 2013) come the findings set out here.

Where a name gives a salt, the structure may show the parent alone.

T1 sequence (P07949 29-1114): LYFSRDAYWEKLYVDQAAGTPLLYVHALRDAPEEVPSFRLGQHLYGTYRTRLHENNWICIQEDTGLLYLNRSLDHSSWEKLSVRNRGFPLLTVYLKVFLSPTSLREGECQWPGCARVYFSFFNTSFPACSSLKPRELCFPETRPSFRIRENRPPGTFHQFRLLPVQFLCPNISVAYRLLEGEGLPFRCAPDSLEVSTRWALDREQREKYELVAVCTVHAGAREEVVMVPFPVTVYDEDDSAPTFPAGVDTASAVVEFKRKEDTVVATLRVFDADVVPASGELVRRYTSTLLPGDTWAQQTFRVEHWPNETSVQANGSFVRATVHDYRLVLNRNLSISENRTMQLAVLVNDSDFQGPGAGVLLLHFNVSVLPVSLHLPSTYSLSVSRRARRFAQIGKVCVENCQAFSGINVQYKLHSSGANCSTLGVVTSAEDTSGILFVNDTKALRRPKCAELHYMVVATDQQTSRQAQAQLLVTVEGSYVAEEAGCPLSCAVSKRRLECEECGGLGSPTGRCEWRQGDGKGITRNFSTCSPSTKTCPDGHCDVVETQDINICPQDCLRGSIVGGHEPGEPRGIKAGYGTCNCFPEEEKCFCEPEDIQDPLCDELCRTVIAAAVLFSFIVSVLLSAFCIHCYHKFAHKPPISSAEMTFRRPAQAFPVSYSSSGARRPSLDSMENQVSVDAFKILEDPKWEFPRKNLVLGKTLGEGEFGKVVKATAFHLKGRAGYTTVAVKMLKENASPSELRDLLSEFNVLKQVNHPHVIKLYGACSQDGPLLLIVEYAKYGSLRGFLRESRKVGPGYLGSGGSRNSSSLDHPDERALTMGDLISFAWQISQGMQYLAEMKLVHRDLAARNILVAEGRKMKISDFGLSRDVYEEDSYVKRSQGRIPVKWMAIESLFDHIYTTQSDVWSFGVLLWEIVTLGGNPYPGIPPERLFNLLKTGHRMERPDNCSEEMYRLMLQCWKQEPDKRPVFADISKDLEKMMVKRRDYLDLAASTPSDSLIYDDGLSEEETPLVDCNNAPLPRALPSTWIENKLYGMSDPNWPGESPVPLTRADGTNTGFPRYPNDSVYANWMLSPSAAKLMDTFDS

This assay addresses T1, RET (Homo sapiens, UniProt P07949).
T1 construct: purchased Upstate 14-570MG
Put plainly: Inhibition of RET kinase activity, recombinant RET method (Kinase-Glo). The assay is classed as biochemical. The note with it: RET 2 μg/ml, poly-EY4 substrate, 20 μM ATP, two hours at 30° C. The method in brief: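 Recombinant RET at 2 μg/ml in 20 mM MOPS/NaOH pH 7.0, 1 mM EDTA, 5% glycerol, 0.01% Brij35, 0.1% 2-mercaptoethanol, 1 mg/ml BSA; compounds 10 nM–30 μM final.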
In general terms: In Kinase-Glo more light means more ATP remaining.
For the compound `CN(c1ccc(F)cc1)S(=O)(=O)c1ccc2[nH]c(=O)c3[nH]cc(C(=O)O)c3c2c1` [Compound 103, 8-[(4-Fluorophenyl)-methyl-sulfamoyl]-4-oxo-4,5-dihydro-3H-pyrrolo[2,3-c]quinoline-1-carboxylic acid], the IC50 lay within 10000 to 100000 nM.

Turning to `CN(c1ccc(F)cc1)S(=O)(=O)c1ccc2[nH]c(=O)c3[nH]cc(C(=O)OCCO)c3c2c1` [Compound 104, 8-[(4-Fluorophenyl)-methyl-sulfamoyl]-4-oxo-4,5-dihydro-3H-pyrrolo[2,3-c]quinoline-1-2-hydroxyethyl carboxylate], the IC50 fell in the range of 1000 to 10000 nM.

Regarding `CN(c1ccc(F)cc1)S(=O)(=O)c1ccc2[nH]c(=O)c3[nH]cc(C(=O)OCCN)c3c2c1` [Compound 105, 8-[(4-Fluorophenyl)-methyl-sulfamoyl]-4-oxo-4,5-dihydro-3H-pyrrolo[2,3-c]quinoline-1-2-aminoethyl trifluoroacetate carboxylate], the IC50 fell in the range of 10000 to 100000 nM.

Regarding `CN(c1ccc(F)cc1)S(=O)(=O)c1ccc2[nH]c(=O)c3[nH]cc(C(=O)OCCNC(=O)OC(C)(C)C)c3c2c1` [Compound 106, 2-tert-Butoxycarbonylaminoethyl 8-[(4-fluorophenyl)-methyl-sulfamoyl]-4-oxo-4,5-dihydro-3H-pyrrolo[2,3-c]quinoline-1-carboxylate], the IC50 fell in the range of 10000 to 100000 nM. With `CN(c1ccc(F)cc1)S(=O)(=O)c1ccc2[nH]c(=O)c3[nH]cc(C(=O)OCCCN)c3c2c1` [Compound 107, Trifluoroacetate of 8-[(4-fluorophenyl)-methyl-sulfamoyl]-4-oxo-4,5-dihydro-3H-pyrrolo[2,3-c]quinoline-1-3-aminopropyl carboxylate] the figure was 10000 to 100000 nM.

With `CN(c1ccc(F)cc1)S(=O)(=O)c1ccc2[nH]c(=O)c3[nH]cc(C(=O)OCCCNC(=O)OC(C)(C)C)c3c2c1` [Compound 108, 3-tert-Butoxycarbonylamino-propyl 8-[(4-fluorophenyl)-methyl-sulfamoyl]-4-oxo-4,5-dihydro-3H-pyrrolo[2,3-c]quinoline-1-carboxylate], the IC50 was in the range of 10000 to 100000 nM. Turning to `CCCNC(=O)c1c[nH]c2c(=O)[nH]c3ccc(S(=O)(=O)N(C)C)cc3c12` [Compound 109, N-Propyl-8-dimethylsulfamoyl-4-oxo-4,5-dihydro-3H-pyrrolo[2,3-c]quinoline-1-carboxamide], the IC50 was 10000 to 100000 nM. Then `CCCN(C)C(=O)c1c[nH]c2c(=O)[nH]c3ccc(S(=O)(=O)N(C)C)cc3c12` [Compound 110, N-Methyl-N-propyl-8-dimethylsulfamoyl-4-oxo-4,5-dihydro-3H-pyrrolo[2,3-c]quinoline-1-carboxamide], with 10000 to 100000 nM; and `CN1CCC(NS(=O)(=O)c2ccc3[nH]c(=O)c4[nH]cc(C(=O)OC5CCCC5)c4c3c2)CC1` [Compound 119, 8-(q-Methyl-piperidin-4-ylsulfamoyl)-4-oxo-4,5-dihydro-3H-pyrrolo[2,3-c]quinoline-1-cyclopentyl carboxylate], with 100 to 1000 nM; and `CCOC(=O)c1c[nH]c2c(=O)[nH]c3ccc(S(=O)(=O)NC4CC5CCC(C4)N5)cc3c12` (stereo not drawn) [Compound 122, 8-(8-Aza-bicyclo[3.2.1]oct-3-ylsulfamoyl)-4-oxo-4,5-dihydro-3H-pyrrolo[2,3-c]quinoline-1-ethyl carboxylate], with under 100 nM. For `CCCOC(=O)c1c[nH]c2c(=O)[nH]c3ccc(S(=O)(=O)NC4CC4)cc3c12` [Compound 124, 8-Cyclopropylsulfamoyl-4-oxo-4,5-dihydro-3H-pyrrolo[2,3-c]quinoline-1-propyl carboxylate], the half-inhibitory concentration (IC50) fell in the range of 100 to 1000 nM. With `CCCOC(=O)c1c[nH]c2c(=O)[nH]c3ccc(S(=O)(=O)N(C)C4CC4)cc3c12` [Compound 125, 8-(Cyclopropyl-methyl-sulfamoyl)-4-oxo-4,5-dihydro-3H-pyrrolo[2,3-c]quinoline-1-propyl carboxylate] the figure was under 100 nM; with `CCCOC(=O)c1c[nH]c2c(=O)[nH]c3ccc(S(=O)(=O)N(C)CCC#N)cc3c12` [Compound 126, 8-[(2-Cyano-ethyl)-methyl-sulfamoyl]-4-oxo-4,5-dihydro-3H-pyrrolo[2,3-c]quinoline-1-propyl carboxylate], 100 to 1000 nM. For `CCCOC(=O)c1c[nH]c2c(=O)[nH]c3ccc(S(=O)(=O)N(C)CC#N)cc3c12` [Compound 128, 8-(Cyanomethyl-methyl-sulfamoyl)-4-oxo-4,5-dihydro-3H-pyrrolo[2,3-c]quinoline-1-propyl carboxylate], the IC50 fell in the range of 100 to 1000 nM. For the compound `CCCOC(=O)c1c[nH]c2c(=O)[nH]c3ccc(S(=O)(=O)N(C)CC4OCCO4)cc3c12` [Compound 129, 8-[1,3]Dioxolan-2-ylmethyl-methyl-sulfamoyl)-4-oxo-4,5-dihydro-3H-pyrrolo[2,3-c]quinoline-1-propyl carboxylate], the IC50 lay within 100 to 1000 nM. With `CCCOC(=O)c1c[nH]c2c(=O)[nH]c3ccc(S(=O)(=O)N(C)C4CCSCC4)cc3c12` [Compound 131, 8-[Methyl-(tetrahydro-thiopyran-4-yl)-sulfamoyl]-4-oxo-4,5-dihydro-3H-pyrrolo[2,3-c]quinoline-1-propyl carboxylate], the IC50 is 100 to 1000 nM. For the compound `CCCOC(=O)c1c[nH]c2c(=O)[nH]c3ccc(S(=O)(=O)N(C)C4CCS(=O)(=O)CC4)cc3c12` [Compound 132, 8-[(1,1-Dioxo-hexahydro-1,6-thiopyran-4-yl)-methyl-sulfamoyl]-4-oxo-4,5-dihydro-3H-pyrrolo[2,3-c]quinoline-1-propyl carboxylate], the IC50 lay in the range of 1000 to 10000 nM. With `CCCOC(=O)c1c[nH]c2c(=O)[nH]c3ccc(S(=O)(=O)N(C)C4CCOCC4)cc3c12` [Compound 133, 8-[Methyl-(tetrahydro-pyran-4-yl)-sulfamoyl]-4-oxo-4,5-dihydro-3H-pyrrolo[2,3-c]quinoline-1-propyl carboxylate] the figure was under 100 nM. Regarding `C#CCN(C)S(=O)(=O)c1ccc2[nH]c(=O)c3[nH]cc(C(=O)OCCC)c3c2c1` [Compound 134, 8-(Methyl-prop-2-ynyl-sulfamoyl)-4-oxo-4,5-dihydro-3H-pyrrolo[2,3-c]quinoline-1-propyl carboxylate], the IC50 is 100 to 1000 nM. Then `CCCOC(=O)c1c[nH]c2c(=O)[nH]c3ccc(S(=O)(=O)N(C)CCSC)cc3c12` [Compound 135, 8-[Methyl-(2-methylsulfanyl-ethyl)-sulfamoyl]-4-oxo-4,5-dihydro-3H-pyrrolo[2,3-c]quinoline-1-propyl carboxylate], with 100 to 1000 nM; and `CCCOC(=O)c1c[nH]c2c(=O)[nH]c3ccc(S(=O)(=O)N(C)CCN(C)C)cc3c12` [Compound 136, 8-[(2-Dimethylamino-ethyl)-methyl-sulfamoyl]-4-oxo-4,5-dihydro-3H-pyrrolo[2,3-c]quinoline-1-propyl carboxylate], with under 100 nM. On to `CCCOC(=O)c1c[nH]c2c(=O)[nH]c3ccc(S(=O)(=O)N(C)CCN4CCCC4)cc3c12` [Compound 137, 8-[Methyl-(2-pyrrolidin-1-yl-ethyl)-sulfamoyl]-4-oxo-4,5-dihydro-3H-pyrrolo[2,3-c]quinoline-1-propyl carboxylate], for which the IC50 lay within 100 to 1000 nM. Then `CCCOC(=O)c1c[nH]c2c(=O)[nH]c3ccc(S(=O)(=O)N(C)CCN(CC)CC)cc3c12` [Compound 138, 8-[(2-Diethylamino-ethyl)-methyl-sulfamoyl]-4-oxo-4,5-dihydro-3H-pyrrolo[2,3-c]quinoline-1-propyl carboxylate], with 100 to 1000 nM; and `CCCOC(=O)c1c[nH]c2c(=O)[nH]c3ccc(S(=O)(=O)N(C)CCNC)cc3c12` [Compound 139, 8-[Methyl-(2-methylamino-ethyl)-sulfamoyl]-4-oxo-4,5-dihydro-3H-pyrrolo[2,3-c]quinoline-1-propyl carboxylate hydrochloride], with under 100 nM. In the case of `CCCOC(=O)c1c[nH]c2c(=O)[nH]c3ccc(S(=O)(=O)N(C)CCN(C)C(=O)OC(C)(C)C)cc3c12` [Compound 140, 8-{[2-(tert-Butoxycarbonyl-methyl-amino)-ethyl]-methyl-sulfamoyl}-4-oxo-4,5-dihydro-3H-pyrrolo[2,3-c]quinoline-1-propyl carboxylate], the concentration for half-maximal inhibition (IC50) fell in the range of 1000 to 10000 nM. With `CCCOC(=O)c1c[nH]c2c(=O)[nH]c3ccc(S(=O)(=O)N(CCNC(C)C)C4CC4)cc3c12` [Compound 142, 8-[Cyclopropyl-(2-isopropylamino-ethyl)-sulfamoyl]-4-oxo-4,5-dihydro-3H-pyrrolo[2,3-c]quinoline-1-propyl carboxylate hydrochloride], the IC50 fell in the range of 100 to 1000 nM. `CCCOC(=O)c1c[nH]c2c(=O)[nH]c3ccc(S(=O)(=O)N(Cc4c[nH]cn4)C4CC4)cc3c12` [Compound 143, 8-[Cyclopropyl-(1H-imidazol-4-ylmethyl)-sulfamoyl]-4-oxo-4,5-dihydro-3H-pyrrolo[2,3-c]quinoline-1-propyl carboxylate hydrochloride]: the IC50 was in the range of 100 to 1000 nM.

With `CCCOC(=O)c1c[nH]c2c(=O)[nH]c3ccc(S(=O)(=O)N(C[C@H]4CCCN4C)C4CC4)cc3c12` [Compound 146, (R)-8-[Cyclopropyl-(1-methyl-pyrrolidin-2-ylmethyl)-sulfamoyl]-4-oxo-4,5-dihydro-3H-pyrrolo[2,3-c]quinoline-1-propyl carboxylate], the IC50 lay within 100 to 1000 nM. In the case of `CCCOC(=O)c1c[nH]c2c(=O)[nH]c3ccc(S(=O)(=O)N(C[C@H]4CCCN4C(=O)OC(C)(C)C)C4CC4)cc3c12` [Compound 147, (R)-8-[(1-tert-Butoxycarbony-pyrrolidin-2-ylmethyl)-cyclopropyl-sulfamoyl]-4-oxo-4,5-dihydro-3H-pyrrolo[2,3-c]quinoline-1-propyl carboxylate], the half-inhibitory concentration (IC50) is 1000 to 10000 nM.

Take `CCCOC(=O)c1c[nH]c2c(=O)[nH]c3ccc(S(=O)(=O)N(C[C@H]4CCCN4)C4CC4)cc3c12` [Compound 148, (R)-8-(Cyclopropyl-pyrrolidin-2-ylmethyl-sulfamoyl)-4-oxo-4,5-dihydro-3H-pyrrolo[2,3-c]quinoline-1-propyl carboxylate hydrochloride]: the 50% inhibitory concentration (IC50) fell in the range of 100 to 1000 nM.

As a reminder, the IC50 is the concentration that gives 50% inhibition.
